How the values were obtained:
Malassezia furfur = assay: Challenge test (Ph.Eur. 5.1.3), germ count over time, Malassezia furfur; type: cell-based; conditions: for total number of microorganisms (linear scale) / total number of microorganisms (log-scale): 1.0% in water
Experimental: The challenge testing procedure consists in challenging a non-contaminated antimicrobial product according to the invention with a prescribed inoculum of suitable microorganisms and storing the inoculated product at a prescribed temperature, e.g. room temperature. The number of organisms surviving in the test products is determined at specified intervals of time.
According to the description given in the European pharmacopea (Ph.Eur.5 Ausgabe, Grundwerk 2005, §5.1.3), the challenge tests are done following the procedure given thereafter.
Production of the Inoculum
A fresh stock culture of the specific micro-organsisms is inoculated on the surface of Agar medium B for bacteria and on the surface of Agar medium C for fungi. The bacteria culture will be incubated until sufficient sporulation (18-24h at 30-35° C.) In order to harvest the bacteria, the surface of the Agar media is washed out with a sterile solution containing sodium chloride (9 g/l) and poured into an adequate vessel. The concentration of germs in the suspension will be adjusted with the same solution to a concentration closed to 10^8 micro-organism/ml. Immediately after that action, a sample of this suspension is taken and the germ concentration in CFU/ml will be measured thanks to the method of membran filtration or counting on Agar plate. This value serves determining the value of the inoculum. The suspension must be used immediately.
Method of Determination of Germ Count
In order to determine the number of micro-organisms in the inoculated preparation (containing also the antimicrobial product according to invention), the same Agar medium as for the preparation of the inoculum will be used.
The aqueous suspension/solution containing 1% of the used ionic liquids (=verum) is inoculated with a suspension of the tests micro-organisms (Malassezia furfur) in such a way that a concentration from 10^5 to 10^6 microorganism/ml of the preparation is reached. The inoculated volume should not be above 1% v/v of the overall test solution. The suspension will be mixed in order to get a good homogenisation.
Water alone (=placebo) is treated in the same way. Antifungicidial activity of the verum will be detected once the survival rate of a microorganism for the verum is significantely lower than for the placebo.
The inoculated preparation is stored away from the daylight at 20-25° C. In order to begin the test, 1 g or 1 ml samples from the tests preparation (containing the inoculated micro-organsisms and the antimicrobial product according to the invention) will be taken at different intervals of time (in our case , 0.2 min, 5 min, 30 min, 1 h, 3 h, 6 h, 24 h) and the number of microorganisms will be measured using the Agar plate or the membrane filtration method. It is important to make sure that any remaining antimicrobial activity to be eliminated by dilution, filtration or specific inactivation.

[1] = system: Staphylococcus epidermidis; assay: Challenge test (Ph.Eur. 5.1.3), germ count over time, Staphylococcus epidermidis; type: cell-based; conditions: 1.0% in water
[2] = Malassezia furfur, incubation 0 h
[3] = Malassezia furfur, incubation 1 h
[4] = Malassezia furfur, incubation 3 h
[5] = Malassezia furfur, incubation 6 h
[6] = Malassezia furfur, incubation 24 h

## CC[N+](C)(C)CCOC [compound 1136, N-ethyl-N,N-dimethyl-2-methoxyethylammonium propionate]
Malassezia furfur; Malassezia furfur
  antifungicidial / microbicidal activity against Malassezia furfur (in words): unique antifungicidial activity
Malassezia furfur; [2]
  total number of microorganisms (linear scale): 45000
  total number of microorganisms (log-scale): 4.7
Malassezia furfur; [3]
  total number of microorganisms (linear scale): 41000
  total number of microorganisms (log-scale): 4.6
Malassezia furfur; [4]
  total number of microorganisms (linear scale): 36000
  total number of microorganisms (log-scale): 4.6
Malassezia furfur; [5]
  total number of microorganisms (linear scale): 33000
  total number of microorganisms (log-scale): 4.5
Malassezia furfur; [6]
  total number of microorganisms (linear scale): 100
  total number of microorganisms (log-scale): 2.0
Malassezia furfur; in words
  selectivity of growth inhibition: Malassezia furfur versus desired skin microorganisms (e.g. Staphylococcus epidermidis): selectively inhibit the growth of the undesired microorganism Malassezia furfur
[1]; incubation 0 h
  total number of microorganisms (linear scale): 210000
  total number of microorganisms (log-scale): 5.3
[1]; incubation 1 h
  total number of microorganisms (linear scale): 160000
  total number of microorganisms (log-scale): 5.2
[1]; incubation 3 h
  total number of microorganisms (linear scale): 180000
  total number of microorganisms (log-scale): 5.3
[1]; incubation 6 h
  total number of microorganisms (linear scale): 170000
  total number of microorganisms (log-scale): 5.2
[1]; incubation 24 h
  total number of microorganisms (linear scale): 22000
  total number of microorganisms (log-scale): 4.3

From patent US20120058057A1, “Anti-dandruff Agents” (MERCK PATENT GMBH, priority 2009, published 2012)
